Reference: patent US5202315A, “Cephalosporin compounds” (Lucky, Ltd., priority 1989, dated 1993)
In brackets after ≈: the same amount, converted by molar mass.

Assays:
[1] = In-vivo absorbency (plasma concentrations & pharmacokinetic parameters); design: species or system SD rat (male); settings: plasma, SD male rat, iv 20 mg/kg, read-out: Plasma Conc.
[2] = tested on: Staphylococcus aureus methicillin susceptible; assay: Antibacterial activity against clinically isolated strains, MIC; type: cell-based; settings: methicillin susceptible, 42 clinical isolates, broth microdilution test; for MIC90: read-out: MIC 90%
[3] = tested on: Escherichia coli; assay: as above; type: cell-based; settings: 38 clinical isolates, broth microdilution test
[4] = tested on: Klebsiella pneumoniae; assay: as above; type: cell-based; settings: 10 clinical isolates, broth microdilution test; for MIC90: read-out: MIC 90%
[5] = tested on: Pseudomonas aeruginosa; assay: as above; type: cell-based; settings: 54 clinical isolates, broth microdilution test; for MIC90: read-out: MIC 90%
[6] = tested on: Salmonella typhimurium ATCC 14028; assay: Antibacterial activity, MIC; type: cell-based; settings: Salmonella enterica; ATCC 14028; agar two-fold dilution, 37° C., 20 hours; read-out: MIC
How it was run: (§1)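 The compound is dispersed into Mueller-Hinton agar across a two-fold dilution series. Each strain is applied as 2 μl of a 10^7 CFU/ml suspension and grown 20 hours at 37 °C.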

[7] = tested on: Citrobacter freundii ATCC 8090; assay: Antibacterial activity, MIC; type: cell-based; settings: ATCC8090, ATCC 8090, agar two-fold dilution, 37° C., 20 hours, read-out: MIC
How it was run: as §1

[8] = tested on: Pseudomonas aeruginosa ATCC 27853; assay: Antibacterial activity, MIC; type: cell-based; settings: ATCC27853, ATCC 27853, agar two-fold dilution, 37° C., 20 hours, read-out: MIC
How it was run: as §1

[9] = tested on: Bacillus megaterium ATCC 9885; assay: Antibacterial activity, MIC; type: cell-based; settings: Priestia megaterium, ATCC9885; ATCC 9885; agar two-fold dilution, 37° C., 20 hours; read-out: MIC
How it was run: as §1

[10] = tested on: Pseudomonas aeruginosa ATCC 25619; assay: Antibacterial activity, MIC; type: cell-based; settings: ATCC25619, ATCC 25619, agar two-fold dilution, 37° C., 20 hours, read-out: MIC
How it was run: as §1

[11] = tested on: Acinetobacter calcoaceticus ATCC 15473; assay: Antibacterial activity, MIC; type: cell-based; settings: ATCC15473, ATCC 15473, agar two-fold dilution, 37° C., 20 hours, read-out: MIC
How it was run: as §1

[12] = tested on: Shigella flexneri ATCC 11836; assay: Antibacterial activity, MIC; type: cell-based; settings: ATCC11836, agar two-fold dilution, 37° C., 20 hours
How it was run: as §1

[13] = tested on: Staphylococcus aureus ATCC 10537; assay: Antibacterial activity, MIC; type: cell-based; settings: ATCC10537, ATCC 10537, agar two-fold dilution, 37° C., 20 hours, read-out: MIC
How it was run: as §1

[14] = tested on: Enterobacter cloacae ATCC 27508; assay: Antibacterial activity, MIC; type: cell-based; settings: ATCC27508, ATCC 27508, agar two-fold dilution, 37° C., 20 hours, read-out: MIC
How it was run: as §1

[15] = tested on: Pseudomonas aeruginosa ATCC 10145; assay: Antibacterial activity, MIC; type: cell-based; settings: ATCC10145, ATCC 10145, agar two-fold dilution, 37° C., 20 hours, read-out: MIC
How it was run: as §1

[16] = tested on: Escherichia coli ATCC 10536; assay: Antibacterial activity, MIC; type: cell-based; settings: ATCC10536, agar two-fold dilution, 37° C., 20 hours
How it was run: as §1

[17] = tested on: Morganella morganii ATCC 8076h; assay: Antibacterial activity, MIC; type: cell-based; settings: ATCC8076H, agar two-fold dilution, 37° C., 20 hours
How it was run: as §1

[18] = tested on: Providencia rettgeri ATCC 9250; assay: Antibacterial activity, MIC; type: cell-based; settings: ATCC9250, agar two-fold dilution, 37° C., 20 hours
How it was run: as §1

[19] = tested on: Bacillus cereus ATCC 11778; assay: Antibacterial activity, MIC; type: cell-based; settings: ATCC11778, ATCC 11778, agar two-fold dilution, 37° C., 20 hours, read-out: MIC
How it was run: as §1

[20] = tested on: Proteus vulgaris ATCC 6059; assay: Antibacterial activity, MIC; type: cell-based; settings: ATCC6059, ATCC 6059, agar two-fold dilution, 37° C., 20 hours, read-out: MIC
How it was run: as §1

[21] = tested on: Klebsiella pneumoniae ATCC 10031; assay: Antibacterial activity, MIC; type: cell-based; settings: ATCC10031, ATCC 10031, agar two-fold dilution, 37° C., 20 hours, read-out: MIC
How it was run: as §1

[22] = tested on: Escherichia coli ATCC 25922; assay: Antibacterial activity, MIC; type: cell-based; settings: ATCC25922, agar two-fold dilution, 37° C., 20 hours
How it was run: as §1

[23] = tested on: Serratia marcescens ATCC 27117; assay: Antibacterial activity, MIC; type: cell-based; settings: ATCC27117, ATCC 27117, agar two-fold dilution, 37° C., 20 hours, read-out: MIC
How it was run: as §1

[24] = tested on: Staphylococcus epidermidis ATCC 12228; assay: Antibacterial activity, MIC; type: cell-based; settings: ATCC12228, ATCC 12228, agar two-fold dilution, 37° C., 20 hours, read-out: MIC
How it was run: as §1

[25] = tested on: Shigella sonnei ATCC 11060; assay: Antibacterial activity, MIC; type: cell-based; settings: ATCC11060, ATCC 11060, agar two-fold dilution, 37° C., 20 hours, read-out: MIC
How it was run: as §1

[26] = tested on: Enterobacter aerogenes ATCC 29751; assay: Antibacterial activity, MIC; type: cell-based; settings: Klebsiella aerogenes, ATCC29751; ATCC 29751; agar two-fold dilution, 37° C., 20 hours; read-out: MIC
How it was run: as §1

[27] = tested on: Staphylococcus aureus ATCC 6538p; assay: Antibacterial activity, MIC; type: cell-based; settings: ATCC6538P, ATCC 6538p, agar two-fold dilution, 37° C., 20 hours, read-out: MIC
How it was run: as §1

[28] = tested on: Staphylococcus aureus methicillin resistant; assay: Antibacterial activity against clinically isolated strains, MIC; type: cell-based; settings: methicillin resistant, 7 clinical isolates, broth microdilution test; for MIC90: read-out: MIC 90%

Structure (SMILES)	concentration at 1 min [1] [µg/mL]	concentration at 2.5 min [1] [µg/mL]	concentration at 5 min [1] [µg/mL]	concentration at 10 min [1] [µg/mL]	concentration at 20 min [1] [µg/mL]	concentration at 40 min [1] [µg/mL]	MIC50 [2] [µg/mL]	MIC90 [2] [µg/mL]	MIC50 [3] [µg/mL]	MIC90 [3] [µg/mL]	MIC50 [4] [µg/mL]	MIC90 [4] [µg/mL]	MIC50 [5] [µg/mL]	MIC90 [5] [µg/mL]	MIC [6] [µg/mL]	MIC [7] [µg/mL]	MIC [8] [µg/mL]	MIC [9] [µg/mL]	MIC [10] [µg/mL]	MIC [11] [µg/mL]	also measured
Cc1c(N)nc(SCC2=C(C(=O)[O-])N3C(=O)C(NC(=O)/C(=N\OC(C)(C)C(=O)O)c4csc(N)n4)C3SC2)[n+](C)c1N (centres unmarked) [Compound I-30]	148	100	80	54	29	17	2 (≈ 3.14 µM)	4 (≈ 6.27 µM)	0.13 (≈ 0.204 µM)	0.25 (≈ 0.392 µM)	0.13 (≈ 0.204 µM)	0.25 (≈ 0.392 µM)	2 (≈ 3.14 µM)	4 (≈ 6.27 µM)	0.25 (≈ 0.392 µM)	0.13 (≈ 0.204 µM)	2 (≈ 3.14 µM)	0.5 (≈ 0.784 µM)	2 (≈ 3.14 µM)	4 (≈ 6.27 µM)	concentration at 2.5 h ([1]; 150 min): 1.3 µg/mL; MIC [12]: 0.031 µg/mL (≈ 0.0486 µM); MIC [13]: 2 µg/mL (≈ 3.14 µM); MIC [14]: 0.063 µg/mL (≈ 0.0988 µM); MIC [15]: 2 µg/mL (≈ 3.14 µM); MIC [16]: 0.063 µg/mL (≈ 0.0988 µM); MIC [17]: ≤ 0.008 µg/mL; MIC [18]: ≤ 0.008 µg/mL; MIC [19]: 128 µg/mL (≈ 201 µM); MIC [20]: 0.063 µg/mL (≈ 0.0988 µM); MIC [21]: 0.063 µg/mL (≈ 0.0988 µM); MIC [22]: 0.063 µg/mL (≈ 0.0988 µM); MIC [23]: 0.13 µg/mL (≈ 0.204 µM); MIC [24]: 2 µg/mL (≈ 3.14 µM); MIC [25]: 0.063 µg/mL (≈ 0.0988 µM); MIC [26]: 2 µg/mL (≈ 3.14 µM); MIC [27]: 4 µg/mL (≈ 6.27 µM); MIC50 [28]: > 128 µg/mL; MIC90 [28]: > 128 µg/mL
CC[n+]1c(N)cc(N)nc1SCC1=C(C(=O)[O-])N2C(=O)C(NC(=O)/C(=N\OC(C)C(=O)O)c3csc(N)n3)C2SC1 (centres unmarked) [Compound I-5]	134	91	72	49	29	13	4 (≈ 6.41 µM)	4 (≈ 6.41 µM)	0.063 (≈ 0.101 µM)	0.13 (≈ 0.208 µM)	0.063 (≈ 0.101 µM)	0.25 (≈ 0.401 µM)	4 (≈ 6.41 µM)	8 (≈ 12.8 µM)	0.13 (≈ 0.208 µM)	0.063 (≈ 0.101 µM)	1 (≈ 1.6 µM)	1 (≈ 1.6 µM)	1 (≈ 1.6 µM)	4 (≈ 6.41 µM)	MIC [12]: 0.031 µg/mL (≈ 0.0497 µM); MIC [13]: 2 µg/mL (≈ 3.21 µM); MIC [14]: 0.016 µg/mL (≈ 0.0257 µM); MIC [15]: 2 µg/mL (≈ 3.21 µM); MIC [16]: 0.063 µg/mL (≈ 0.101 µM); MIC [17]: ≤ 0.008 µg/mL; MIC [18]: ≤ 0.008 µg/mL; MIC [19]: 128 µg/mL (≈ 205 µM); MIC [20]: 0.031 µg/mL (≈ 0.0497 µM); MIC [21]: 0.031 µg/mL (≈ 0.0497 µM); MIC [22]: 0.063 µg/mL (≈ 0.101 µM); MIC [23]: 0.063 µg/mL (≈ 0.101 µM); MIC [24]: 1 µg/mL (≈ 1.6 µM); MIC [25]: 0.031 µg/mL (≈ 0.0497 µM); MIC [26]: 0.5 µg/mL (≈ 0.802 µM); MIC [27]: 2 µg/mL (≈ 3.21 µM); MIC50 [28]: > 128 µg/mL; MIC90 [28]: > 128 µg/mL
